The results in this text go back to paper PMC8160210, “Single tryptophan Y160W mutant of homooligomeric E. coli purine nucleoside phosphorylase implies that dimers forming the hexamer are functionally not equivalent” (Scientific Reports, 2021).

Where two headings read alike, the source gives them in different places.

Assay [1] concerns the target T1, Y160W PNP mutant (Escherichia coli, UniProt P0ABP8, Y161W). Put plainly: Fluorescence titrations with phosphate. On the set-up: made in house; host or cells: E. coli DH5α-T1; species or system E. coli. The settings on record: three-binding-site model, 25 °C. The method, then: All experiments were carried out on the Perkin-Elmer LS55 spectrofluorimeter. Fluorescence spectra were registered using in each case (protein or protein–ligand complex) several excitation wavelengths. Differential spectra were calculated by subtracting spectrum of a protein from the spectrum of the appropriate complex. The negative differential fluorescence intensity means that a decrease of fluorescence upon complex formation is observed. Titrations of the enzyme with phosphate were registered using several excitation and observation wavelengths combinations. When selecting specific wavelengths for such a combination, two criteria were used: (1) the overall change in the fluorescence signal and (2) the complexity of the shape of the titration as the analysis of the multi-phasic curves is more explicit than a uni-phasic curve analysis.
Path length for the excitation was 2 mm and for the emission was 5 mm (half of the cuvette dimensions). A continuous stirring was used during titrations. All measurements were performed at 25 °C. […]
Fluorescence intensity of the WT protein is stable over time, but in the case of the Y160W mutant a slight quenching of fluorescence is observed during titration, which typically lasted about 30 min as the time between each point in the titration was 1 min. Furthermore, adding phosphate during titration stabilises the intrinsic fluorescence of the protein. […] Thus corrected binding curves, F^cor([Pi]), are given by the following equation, in which Fn([Pi]) is the fluorescence intensity measured for the phosphate concentration [Pi], and n is the number of a given titration point in the particular titration:4 FncorPi=FnPi+∑m=1naPim
To check its influence on the intrinsic protein fluorescence, titrations with NaCl were performed, giving dependence F(I). […] Titration curves of the WT protein with phosphate were therefore measured up to 100 mM ionic strength of solution, which is enough to observe a plateau. […] Both F^obs([Pi]) and F(I) were corrected for the time dependent fluorescence quenching, according to Eq. (4), prior to the F^bind([Pi]) calculation. […]

The target of assay [2] is T1, Y160W PNP mutant. To be noted: phosphate as variable substrate, 0.4 mM m^7Guo, allostery Eq. (2). The method, then:
Activity measurements were performed for each protein sample, before and after each experiment as a control of the state of the protein.
The classical Michaelis–Menten equation was fitted to the kinetic curves (i.e. initial rate of the reaction, v0, vs. initial substrate concentration, c0):1 v0c0=Vmax1c0/c0+KM1
Coefficients a and b express the degree of cooperation between the subunits in a dimer, while constants KM1 and Vmax1 characterize the active sites of the enzyme when the neighbouring site is free.
A more complex model was used if there was a statistically significant decrease in the residual sum of squares as judged by the F test at 95% confidence level.

T1 sequence (P0ABP8 2-239 Y161W): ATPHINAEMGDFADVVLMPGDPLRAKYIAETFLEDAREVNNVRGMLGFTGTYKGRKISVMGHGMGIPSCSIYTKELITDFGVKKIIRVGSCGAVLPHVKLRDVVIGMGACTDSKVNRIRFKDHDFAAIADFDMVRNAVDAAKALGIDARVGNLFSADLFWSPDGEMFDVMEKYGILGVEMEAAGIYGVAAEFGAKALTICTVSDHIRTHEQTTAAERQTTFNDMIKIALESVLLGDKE

As for `O=P(O)(O)O` [Pi, Orthophosphate], at Y160W PNP mutant [1] (50 mM Tris/HCl pH 7.6, read-out: Kd1 ± SD), the Kd was 7 µM. Also, the Kd on Y160W PNP mutant [1] (50 mM Tris/HCl pH 7.6, read-out: Kd2 ± SD) came out at 200 µM. The Kd on Y160W PNP mutant [1] (50 mM Tris/HCl pH 7.6, read-out: Kd3 ± SD) was 3200 µM. Moreover, at Y160W PNP mutant [2], the “a (cooperativity coefficient, KM2 = aKM1)” value is recorded as 390 ± 122 and the “b (cooperativity coefficient, Vmax2 = bVmax1)” value came to 0.94 ± 0.05. Also, at Y160W PNP mutant [2] (pH 7.0, 25 °C), the Km worked out at 18.7 ± 2.7 µM and the Vmax was 11.7 ± 0.4 U/mg.

One may read the Km as the concentration of substrate that gives half-maximal velocity.
